Measurements from the CheMixHub viscosity set.

Test: xn = mol fraction of the nth substance listed

Fc1c(F)c(F)c(F)c(F)c1F + CS(C)=O
viscosity [mPa·s], 101 kPa
Details | x2 = 0.1003 | x2 = 0.2029 | x2 = 0.2999 | x2 = 0.4 | x2 = 0.5001 | x2 = 0.5999 | x2 = 0.7 | x2 = 0.8004 | x2 = 0.9
293.15 K | 0.991 | 1.058 | 1.143 | 1.246 | 1.365 | 1.509 | 1.661 | 1.806 | 1.974
303.15 K | 0.833 | 0.891 | 0.961 | 1.05 | 1.144 | 1.267 | 1.386 | 1.513 | 1.641
313.15 K | 0.703 | 0.758 | 0.822 | 0.904 | 0.976 | 1.071 | 1.171 | 1.276 | 1.385
323.15 K | 0.62 | 0.659 | 0.713 | 0.775 | 0.839 | 0.918 | 0.993 | 1.077 | 1.167

OC[C@H]1O[C@@](CO)(O[C@H]2O[C@H](CO)[C@@H](O)[C@H](O)[C@H]2O)[C@@H](O)[C@@H]1O + CS(C)=O
viscosity [mPa·s], 101 kPa
Details | 298.15 K | 308.15 K | 318.15 K
x1 = 0.006451 | 2.4 | 1.962 | 1.63
x1 = 0.01289 | 2.883 | 2.319 | 1.908
x1 = 0.01959 | 3.523 | 2.793 | 2.266
x1 = 0.0336 | 5.532 | 4.214 | 3.309
x1 = 0.04801 | 9.087 | 6.615 | 4.999
x1 = 0.05582 | 12.08 | 8.541 | 6.292
x1 = 0.06395 | 16.4 | 11.28 | 8.055
x1 = 0.07246 | 22.45 | 14.86 | 10.39
x1 = 0.08036 | 30.82 | 19.69 | 13.36
x1 = 0.09752 | 61.59 | 36.46 | 23.02
x1 = 0.1069 | 90.84 | 51.59 | 31.4
x1 = 0.117 | 139.8 | 75.48 | 43.98
x1 = 0.1263 | 211.4 | 109.3 | 61.19

O=C(O)CC(O)C(=O)O (centres undefined) + C[C@H](N)C(=O)O
101 kPa, x2 = 0.5
Details | viscosity [mPa·s]
298.15 K | 475400
318.15 K | 32390

O=C(O)CC(O)C(=O)O (centres undefined) + C[N+](C)(C)CC(=O)[O-]
Details | viscosity [mPa·s]
318.15 K, 101 kPa, x2 = 0.5 | 42170

C[C@H](O)C(=O)O + C[N+](C)(C)CCO.[Cl-]
101 kPa, x2 = 0.3333
Details | viscosity [mPa·s]
303.15 K | 374.3
313.15 K | 187

O=C(O)CC(O)C(=O)O (centres undefined) + C[N+](C)(C)CCO.[Cl-]
Details | viscosity [mPa·s]
293.15 K, 101 kPa, x1 = 0.5 | 24490
293.2 K, 101.3 kPa, x2 = 0.602 | 8896
293.2 K, 101.3 kPa, x2 = 0.666 | 3341
298 K, 101.3 kPa, x2 = 0.5 | 2082
298.15 K, 101 kPa, x1 = 0.5 | 22090
298.15 K, 101.33 kPa, x1 = 0.7 | 530.2
303.15 K, 101 kPa, x1 = 0.5 | 13390
303.2 K, 101.3 kPa, x2 = 0.602 | 5432
303.2 K, 101.3 kPa, x2 = 0.666 | 2810
308.15 K, 101 kPa, x1 = 0.5 | 8995
313.15 K, 101 kPa, x1 = 0.5 | 5859
313.2 K, 101.3 kPa, x2 = 0.505 | 6421
313.2 K, 101.3 kPa, x2 = 0.602 | 2827
313.2 K, 101.3 kPa, x2 = 0.666 | 1676
318.15 K, 101 kPa, x1 = 0.5 | 4121
323 K, 101.3 kPa, x2 = 0.5 | 610
323.15 K, 101 kPa, x1 = 0.5 | 2924

Oc1cccc(O)c1O + C[N+](C)(C)CCO.[Cl-]
viscosity [mPa·s], 101.3 kPa
Details | 293.15 K | 298.15 K | 303.15 K | 308.15 K | 313.15 K | 318.15 K | 323.15 K
x2 = 0.333 | 6400 | 4850 | 3200 | 2000 | 1250 | 800 | 600
x2 = 0.5 | 6100 | 3750 | 2500 | 1500 | 1000 | 750 | 500

C=C1CCC2CC1C2(C)C (centres undefined) + Cc1cc(C)cc(C)c1
viscosity [mPa·s], 101 kPa
Details | x2 = 0.2198 | x2 = 0.3257 | x2 = 0.429 | x2 = 0.5299 | x2 = 0.6283 | x2 = 0.7245 | x2 = 0.8185 | x2 = 0.9103
303.15 K | 1.254 | 1.108 | 0.981 | 0.871 | 0.799 | 0.743 | 0.696 | 0.661
308.5 K | 1.167 | 1.032 | 0.915 | 0.819 | 0.749 | 0.695 | 0.653 | 0.622
313.15 K | 1.082 | 0.959 | 0.854 | 0.768 | 0.698 | 0.645 | 0.606 | 0.576

C=C1CCC2CC1C2(C)C (centres undefined) + Cc1cccc(C)c1
viscosity [mPa·s], 101 kPa
Details | x2 = 0.2415 | x2 = 0.3531 | x2 = 0.4592 | x2 = 0.5602 | x2 = 0.6564 | x2 = 0.7482 | x2 = 0.8359 | x2 = 0.9198
303.15 K | 1.225 | 1.049 | 0.915 | 0.799 | 0.737 | 0.682 | 0.637 | 0.602
308.5 K | 1.137 | 0.98 | 0.85 | 0.748 | 0.685 | 0.639 | 0.6 | 0.568
313.15 K | 1.05 | 0.91 | 0.787 | 0.697 | 0.637 | 0.593 | 0.563 | 0.542
